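Tested at 5 concentrations; 48 h exposure; 96-well plates; endpoints linearly interpolated, else capped at highest concentration. Here, GI50 denotes the concentration required for 50% inhibition of growth. TGI marks complete inhibition of growth.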
How the values were obtained:
Test in all cases: NCI tumour cell line growth inhibition, 48 h
HOP-62 NSCLC = test system: HOP-62 NSCLC
HOP-92 NSCLC = test system: HOP-92 NSCLC
HS 578T breast = test system: HS 578T breast
NCI/ADR-RES ovarian = test system: NCI/ADR-RES ovarian
OVCAR-3 ovarian = test system: OVCAR-3 ovarian
PC-3 prostate = test system: PC-3 prostate
SNB-19 CNS = test system: SNB-19 CNS
SNB-75 CNS = test system: SNB-75 CNS
SR leukemia = test system: SR leukemia
TK-10 renal = test system: TK-10 renal

| Compound | GI50 (HOP-62 NSCLC) | TGI (HOP-62 NSCLC) | GI50 (HOP-92 NSCLC) | TGI (HOP-92 NSCLC) | GI50 (HS 578T breast) | TGI (HS 578T breast) | GI50 (NCI/ADR-RES ovarian) | TGI (NCI/ADR-RES ovarian) | GI50 (OVCAR-3 ovarian) | TGI (OVCAR-3 ovarian) | GI50 (PC-3 prostate) | TGI (PC-3 prostate) | GI50 (SNB-19 CNS) | TGI (SNB-19 CNS) | GI50 (SNB-75 CNS) | TGI (SNB-75 CNS) | GI50 (SR leukemia) | TGI (SR leukemia) | GI50 (TK-10 renal) | TGI (TK-10 renal) |
| --- | --- | --- | --- | --- | --- | --- | --- | --- | --- | --- | --- | --- | --- | --- | --- | --- | --- | --- | --- | --- |
| NC(CSC(c1ccccc1)(c1ccccc1)c1ccccc1)C(=O)NCC(=O)O (stereo not given) | 8.16 µM | > 100 µM | 5.01 µM | > 100 µM | 3.29 µM | 25.1 µM | 26.5 µM | > 100 µM | 5.15 µM | 37.2 µM | 5.25 µM | > 100 µM | 8.33 µM | > 100 µM | 2.95 µM | 27.7 µM | 3.48 µM | 38.2 µM | – | – |
| Nc1ncc(-c2cnn(C3CCNCC3)c2)cc1-c1nc2cc(Cl)ccc2o1 | 1.61 µM | 3.1 µM | 0.808 µM | 2.14 µM | 0.385 µM | 1.77 µM | – | – | 1.73 µM | 3.26 µM | 1.29 µM | 2.77 µM | 1.56 µM | 2.97 µM | 1.65 µM | 3.06 µM | – | – | 1.94 µM | 3.58 µM |
| [N-]=[N+]=NCCCn1c2c(c3ccc([N+](=O)[O-])cc3c1=O)C(=O)c1ccccc1-2 | > 100 µM | > 100 µM | 45.1 µM | > 100 µM | – | – | > 100 µM | > 100 µM | – | – | 38 µM | > 100 µM | – | – | – | – | – | – | 99.2 µM | > 100 µM |
| N#CCC(=O)N/N=C1/C(=O)N(c2ccc(Cl)cc2)C(=O)C(=O)C1c1nc2ccccc2s1 (stereo not given) | – | > 100 µM | – | > 100 µM | – | – | – | – | – | > 100 µM | – | – | – | > 100 µM | – | 63.7 µM | – | – | – | > 100 µM |
| O=C(Nc1cccc(O)c1)C(=O)C1C(=O)NC(=S)NC1=O | – | – | – | > 100 µM | – | – | – | – | – | > 100 µM | – | – | – | > 100 µM | – | > 100 µM | – | > 100 µM | – | – |
| NC(CCCC(N)P(=O)(O)O)P(=O)(O)O (stereo not given) | – | – | – | > 100 µM | – | – | – | – | – | > 100 µM | – | – | – | – | – | > 100 µM | – | – | – | > 100 µM |
| C[C@]12CCc3sc(Nc4ccc(OC(F)(F)F)cc4)nc3C1=CC[C@@H]1[C@@H]2CC[C@]2(C)C(=O)CC[C@@H]12 | 1.92 µM | 4.19 µM | 1.43 µM | 3.44 µM | 1.48 µM | 5.22 µM | 3.93 µM | 20.2 µM | 1.94 µM | 4.14 µM | – | – | 2.12 µM | 9.93 µM | 1.88 µM | 6.23 µM | 2.74 µM | > 100 µM | 4.82 µM | 32 µM |
| O=C(Nc1ccc(C(F)(F)F)cc1[N+](=O)[O-])C(=O)C1NC(=S)NC1=O (stereo not given) | – | > 100 µM | – | > 100 µM | – | – | – | – | – | > 100 µM | – | – | – | > 100 µM | – | 97.2 µM | – | > 100 µM | – | > 100 µM |
| O=S(=O)(C1=CC(S(=O)(=O)c2ccccc2)CN(Cc2ccccc2)C1c1cccc2ccccc12)c1ccccc1 (stereo not given) | – | > 69 µM | – | > 69 µM | – | – | – | – | – | > 69 µM | – | – | – | > 69 µM | – | > 69 µM | – | – | – | > 69 µM |
| CC(=O)C1C(c2ccccc2)C2(C)OC(=O)C(C#N)C12C (stereo not given) | – | – | – | – | – | – | – | – | – | > 100 µM | – | – | – | > 100 µM | – | > 100 µM | – | – | – | > 100 µM |
| CCCCCCCCCCCCCP(=O)(O)O | – | > 100 µM | – | > 100 µM | – | – | – | – | – | > 100 µM | – | – | – | > 100 µM | – | > 100 µM | – | – | – | > 100 µM |

From PubChem BioAssay (NCI)
